# Measured values from patent publication US20240043394A1, “PROTEASOME ENHANCERS AND USES THEREOF” (Board of Trustees of Michigan State University, priority 2020, published 2024).
# How the values were obtained:
# [1] = molecular target: T1, purified human 20S proteasome (Homo sapiens, UniProt P25787+P60900); experiment: 20S proteasome small peptide assay, combination of all three fluorogenic substrates (CT-L/Casp-L/T-L); assay type: biochemical; settings: three probes combined; for AC200 CT-L/Casp-L/T-L: concentration needed to double (200%) the rate of substrate degradation vs vehicle; for Max Fold CT-L/Casp-L/T-L: maximum fold rate increase vs vehicle control
# T1 construct: purchased Boston Biochem or Life Sensors E-360 or ps020
# Protocol: (§1) In vitro testing, 20S activation: The 20S proteasome activity of the compounds was assessed by utilizing the standard fluorogenic 7-amino-methylcoumarin (AMC) conjugated small peptide substrates that correspond to each of the catalytic sites in the 20S proteasome: chymotryptic-like site (Suc-LLVY-AMC), caspase-like site (Z-LLE-AMC), and trypsin-like site (Boc-LRR-AMC). When the small peptide substrate is degraded by the 20S proteasome, the AMC fluorophore is released and quantified to measure the rate of proteolytic cleavage. The 20S proteasome activity of the small molecules was evaluated at varying concentrations to determine the concentration at which the rate of proteolysis was doubled (i.e. the concentration needed to induce 200% activity) compared to the vehicle control (hereafter named as AC200). Concentrations ranging from 1.25 μM to 80 μM of each of compound were added to wells that contained 0.5 nM of purified human proteasome.
# (§2) The overall enhancement of the rate of proteolysis of the 20S proteasome by a small molecule was first evaluated by adding a combination of all three peptide substrates to the treated sample. The combination of all three substrates represents a more accurate measurement of proteolytic activity of the proteasome because the catalytic sites housed in the β ring of the 20S proteasome communicate through allosteric interactions. For example, when a protein substrate encounters the chymotryptic-like site, a conformational change will occur activating the caspase-like site.^61 The individual contribution of each of the three catalytic sites was subsequently evaluated by adding only the corresponding peptide probes to gain insight into the contribution of each site on the overall enhanced proteolytic activity.
# (§3) The fluorescent output, due to release of the AMC fluorophore, was then converted to the fold increase compared to a vehicle control sample, and the AC200 was calculated. […] (Table 1).
# (§4) AC200 represents the concentration needed to double (e.g., 200%) the rate of substrate degradation compared to vehicle control. Max fold is the maximum fold rate increase compared to vehicle control.
# (§5) 20S Proteasome Small Peptide Assay: Activity assays were carried out in a black flat/clear bottom 96 well plate with a […] volume. Concentrations of the potential activators, varying from 80 μM to 1.25 μM, were added to the well that contained 1 nM 20S proteasome purchased from either Boston Biochem (catalog number E-360) or Life Sensors (catalog number ps020), in a […] buffer at a pH of 7.8. This solution was left to incubate at 37° C. for 15 minutes. For the assay for the overall proteasome activity, 13.33 μM of each small peptide substrate is added. The 96 well plate is then placed into a plate reader (SpectraMax M5e spectrometer) and the plate reader will take a fluorescent reading every 5 minutes for an hour at 37° C. The enzymatic activity of the 20S proteasome is quantified using the fluorescent output at 380-460 nm, which is converted to max fold increase over the untreated sample. The activity of the individual catalytic assays is identical to the assay that assesses the overall activity of the 20S proteasome except only one small peptide substrate is added. To evaluate the activity of the CT-L and the Casp-L sites, 10 μM of the Suc-LLVY-AMC (Boston Biochem S-280) and Z-LLE-AMC (Boston Biochem S-230) were added, respectively. To evaluate the activity of the T-L site, 20 μM of the Boc-LRR-AMC (Boston Biochem S-300) is added.
# [2] = molecular target: T2, purified human 20S proteasome, Casp-L site (Homo sapiens, UniProt P25787+P60900); experiment: 20S proteasome small peptide assay, Z-LLE-AMC caspase-like probe; assay type: biochemical; settings: for AC200 Casp-L site: concentration needed to double rate vs vehicle
# T2 construct: purchased Boston Biochem or Life Sensors E-360 or ps020
# Protocol: as §1, §2, §3, §4, §5
# [3] = molecular target: T3, purified human 20S proteasome, T-L site (Homo sapiens, UniProt P25787+P60900); experiment: 20S proteasome small peptide assay, Boc-LRR-AMC trypsin-like probe; assay type: biochemical; settings: for AC200 T-L site: concentration needed to double rate vs vehicle
# T3 construct: purchased Boston Biochem or Life Sensors E-360 or ps020
# Protocol: as §1, §2, §3, §4, §5
# [4] = molecular target: T4, purified human 20S proteasome, CT-L site (Homo sapiens, UniProt P25787+P60900); experiment: 20S proteasome small peptide assay, Suc-LLVY-AMC chymotryptic-like probe; assay type: biochemical; settings: for AC200 CT-L site: concentration needed to double rate vs vehicle; for Max Fold CT-L site: maximum fold rate increase vs vehicle
# T4 construct: purchased Boston Biochem or Life Sensors E-360 or ps020
# Protocol: as §1, §2, §3, §4, §5
# 26S proteasome = 26S proteasome (Homo sapiens, UniProt P25787+P60900); experiment: Fluorogenic small peptide degradation assay with the 26S proteasome (ATP and magnesium chloride added); assay type: biochemical; settings: for 26S proteasome activation, in words: concentration range 0-80 μM
# Protocol: The fluorogenic small peptide degradation assay was conducted again, with the 26S proteasome in place of the 20S proteasome. To ensure that the 26S proteasome remained in its fully assembled complex, ATP and magnesium chloride were added.
# [5] = molecular target: T1, purified human 20S proteasome; experiment: Digestion of purified α-synuclein by purified 20S proteasome (silver staining); assay type: biochemical
# Protocol: Quantification of α-synuclein degradation by each compound was done in triplicate. One-way ANOVA statistical analysis was used to determine statistical significance (ns=not significant, *p<0.05, *p<0.01, ***p<0.001, ****p<0.0001).
# In vitro testing, IDP degradation: The ability of our small molecules 20S proteasome activators to degrade pathologically relevant IDPs was evaluated in vitro and in cells. […] Then, purified α-synuclein was added and the digestion was incubated at 37° for 6 hours. An SDS loading buffer was added and the samples were boiled to halt α-synuclein degradation. The percentage of remaining α-synuclein was visualized and quantified using silver staining (FIG. 3). Compound 2 was able to increase the rate of degradation of full length α-synuclein. At the highest concentration (5 μM), α-synuclein was reduced up to 33%.
# Digestion of purified α-synuclein: Degradation assays were carried out in a 50 μL reaction volume of […] buffer at a pH of 7.8, 0.5 μM of purified α-synuclein, and 7.5 nM purified human 20S proteasome. The 20S proteasome was first diluted to 8.56 nM in the Tris-HCl buffer and 1 μL of the test compounds or DMSO was added. This mixture was incubated for 20 minutes at 37° C. After this incubation, 5 μL of a 5 μM stock of α-synuclein was added. The degradation mixture was incubated at 37° C. for 5 hours. The reaction was stopped with addition of concentrated SDS loading buffer and boiled for 10 minutes. After the samples were boiled, they were resolved on a 4-20% Tris-glycine SDS-PAGE gel and visualized using silver staining.
# [6] = test system: A53T mutant α-synuclein in Hek-293T cells; experiment: In cell degradation of A53T α-synuclein (Western blot); assay type: cell-based; settings: 10 hours
# Protocol: Error bars denote standard deviation. One-way ANOVA statistical analysis was used to determine statistical significance (ns=not significant, *p<0.05, **p<0.01, ***p<0.001, ****p<0.0001) (FIG. 4B).
# Cellular efficacy: The A53T mutation of α-synuclein has been linked to early on-set familial Parkinson's disease and appears to oligomerize faster than the wild-type protein. […] Hek-293T cells were transiently transfected with an inducible Tet-One A53T mutant α-synuclein. The cells were treated with 100 ng/mL of doxycycline to induce the production of the A53T mutant. […] The cells were then lysed and the remaining A53T α-synuclein was visualized and quantified via Western Blotting (FIG. 4, n=4).
# In cell degradation of A53T α-synuclein: In a 6 well plate, Hek293T cells were grown to 80% confluency and then transfected using Xfect biopolymer transfection system with the Tet-One A53T α-synuclein plasmid. 24 hours post transfection, 100 ng/mL of doxycycline was added to induce A53T α-synuclein expression. After 24 hours of protein induction, media was removed that contained the doxycycline and was washed with PBS. Media with the desired drug concentration or DMSO was added and treated for 10 hours. After the cells were treated with the test compounds or DMSO, the cells were scraped and the pelleted (300 g for 5 minutes). The supernatant was taken off and the cell pellet was washed with ice cold PBS and then lysed with RIPA buffer with added protease inhibitors. The cell lysate was incubated for 20 minutes on ice. The lysate was centrifuged for 15 minutes at 500 g and then the supernatant was collected. Concentrated SDS loading buffer was added and the samples were boiled for 10 minutes. The samples were then resolved on a 4-20% Tris-glycine SDS-PAGE gel and immunoblotted with mouse monoclonal anti α-synuclein IgG (1:2000) and anti-mouse HRP-linked IgG (1:2000). Blots were developed with ECL Westem reagent and imaged with an Azure Biosystems 3000 imager.
# [7] = maximum fold rate increase vs vehicle
compound,measurement,setting,value
"CN(C)CCCN1c2ccccc2Sc2ccc(Cl)cc21 [CPZ, chlorpromazine, reference compound]",AC200 CT-L/Casp-L/T-L,[1],13.5 µM
same,Max Fold CT-L/Casp-L/T-L,[1],~4 fold
same,AC200 Casp-L site,[2],>80 µM
same,AC200 T-L site,[3],>80 µM
same,AC200 CT-L site,[4],7 µM
same,Max Fold CT-L site,[4],8 fold
same,"26S proteasome activation, maximum fold increase over the vehicle control",26S proteasome; at higher concentrations (range 0-80 μM),2 fold
same,"26S proteasome activation, in words",26S proteasome,did not enhance the proteolytic activity of the 26S proteasome
"O=C(CCN1c2ccccc2Sc2ccc(Cl)cc21)N(c1ccc(F)cc1)c1ccc(F)cc1 [Compound 19, 3-(2-chloro-10H-phenothiazin-10-yl)-N,N-bis(4-fluorophenyl)propanamide]",AC200 CT-L/Casp-L/T-L,[1],0.4 µM
same,Max Fold CT-L/Casp-L/T-L,[1],11 fold
same,AC200 Casp-L site,[2],1.8 µM
same,Max Fold Casp-L site,[2]; [7],9.4 fold
same,AC200 T-L site,[3],0.3 µM
same,Max Fold T-L site,[3]; [7],6 fold
same,AC200 CT-L site,[4],0.7 µM
same,Max Fold CT-L site,[4],9.4 fold
same,"26S proteasome activation, in words",26S proteasome,did not display any 26S proteasome activation
same,"depletion of α-synuclein over concentration range, in words",[5]; 0.1 μM to 5 μM,clear dose dependent depletion
same,decrease of α-synuclein,"[5]; 0.5 μM compound, 37° C., 6 hours",34%
same,reduction of α-synuclein,"[5]; 5 μM compound, 37° C., 6 hours",57%
same,"reduction of A53T mutant α-synuclein, in words",[6]; 3 μM (lowest concentration),reduce the concentration of the A53T mutant α-synuclein significantly
same,decrease of accumulated A53T α-synuclein,"[6]; 10 μM, normalized to vehicle",58%
